Results on three compounds are retold here after PMC12723449, “From Pharmacophore to Warhead: NAD^+‐Targeting Triazoles as Mechanism‐Based Sirtuin Inhibitors” (Angewandte Chemie (International Ed. in English), 2025).

Test [1] concerns the target T1, SIRT2 (Homo sapiens, UniProt Q8IXJ6).
T1 construct: For assay experiments, strep-tagged human SIRT1134−747 and SIRT256-356 were expressed and purified as previously; Strep-tag; made in house; host or cells: E. coli BL21 Star (DE3)
T1 sequence (Q8IXJ6 56-356 limits assumed): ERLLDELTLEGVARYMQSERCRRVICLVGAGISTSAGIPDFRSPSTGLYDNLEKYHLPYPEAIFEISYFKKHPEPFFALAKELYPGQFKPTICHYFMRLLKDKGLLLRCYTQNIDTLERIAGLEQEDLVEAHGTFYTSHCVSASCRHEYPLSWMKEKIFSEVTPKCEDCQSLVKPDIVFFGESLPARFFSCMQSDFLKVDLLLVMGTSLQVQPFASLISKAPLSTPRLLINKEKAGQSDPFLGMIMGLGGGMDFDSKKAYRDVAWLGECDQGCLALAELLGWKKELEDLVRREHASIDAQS
The test is described as follows: CE-ESI-MS analysis of adducts formed in vitro. The conditions noted are these: SIRT2 incubated with NAD+ and compound, thermal denaturation. The test is classed as biochemical. The procedure: Capillary electrophoresis–electrospray ionization–mass spectrometry (CE-ESI-MS) analysis of […]
Analysis of the enzymatic products were performed using a capillary electrophoresis coupled to mass spectrometry method (CE-MS) described first in the separation of inositol (pyro)phosphates.[11] CE (Agilent 7100 CE system) was coupled to a time-of-flight mass spectrometry Agilent 6545 system and ionization was performed with a commercially available Agilent Jet Stream (AJS) electrospray ionization (ESI) source. An Agilent liquid coaxial interface was used and the ionization spray was stabilized with a water-isopropanol (1:1 v/v) mixture as sheath liquid. The sheath liquid was pumped with an Agilent 1200 isocratic LC pump, using a 1:100 splitter and resulting in a flow of 1.5 µl/min.
A mixture of SIRT256-356 (final concentration of 11 mg/mL) in SEC buffer, compound 1 or 7 (3.33 mM of inhibitor with a final DMSO concentration of 3.33 % (v/v)) and NAD+ (final concentration of 10 mM) were incubated for 90 min and centrifuged for 5 min to remove inhibitor precipitate. Following SIRT2 denaturation at 65 °C for 1 min and centrifugation for 5 min to remove precipitated protein, 20 nL of each sample was injected under 100 mbar pressure for 20 s. […] Analytes were detected in negative ionization mode, a capillary voltage of -3000 V and an ESI spray current of 2.1 µA. […]

The subject of another test is α‐tubulin. Also noted: method as in PMID 35441145. To be noted: cited from earlier work.
Test [2] has as its target T1, SIRT2. In words: Fluorescence-based deacetylation assay (ZMAL-assay), SIRT2. It counts as biochemical. The conditions noted are these: 37 °C, assay limit 0.10 µM, read-out: SIRT2 (deac.) IC50. The procedure:
Determination of IC50 values (SIRT1, SIRT2, SIRT3) via fluorescence-based deacetylation assay […]
The fluorescence-based deacetylation assay was conducted in a black 384-well microplate (OptiPlate-384 F, PerkinElmer) with a total volume of 30 µL per well and a final DMSO concentration of 2% (v/v) according to a […]
concentration of 100 nM) in assay buffer (50 mM Tris, 137 mM NaCl, 2.7 mM KCl, 1m MgCl2, 0.01% Tween, 0.05 mg/mL BSA, 0.2 mM TCEP, pH 8.0), 5 µL of substrate (ZMAL, final concentration of 10.5 µM), 5 µL of NAD+ (final concentration of 500 µM) and 10 µL of inhibitor solution (final concentration of 30 µM – 0.014 µM, serial 1:3 dilutions) was incubated at 37 °C and 300 rpm for 4 h. A solution of trypsin (final concentration of 0.5 mg/mL) and nicotinamide (final concentration of 4 mM) was added and incubated at 37 °C and 300 rpm for 30 min to stop the reaction. Samples with 2% (v/v) DMSO instead of inhibitor were prepared as a positive control, and samples with 2% (v/v) DMSO instead of SIRT enzyme were prepared as a negative control. Fluorescence intensity was measured with a microplate reader (λEx = 380-10 nm, λEm = 460 nm, BMG POLARstar Optima, BMG Labtech, Germany). IC50 values were then determined using a nonlinear regression fit with Origin Pro 2019 software. All experiments were performed at least in duplicates. […]

Where only a bound is given, the exact number is not on record here.

Turning to `COCCn1cc(COc2cccc(Cc3cnc(NC(=O)CSc4nc(C)cc(C)n4)s3)c2)nn1` [Compound 1, reference compound], the “ADPR adduct detected in solution by CE-ESI-MS” value on SIRT2 [1] is listed as “undetectable”. Further, the α-tubulin hyperacetylation result with α‐tubulin is on record as “pronounced α‐tubulin hyperacetylation”.
For `Cc1cc(C)nc(SCC(=O)Nc2ncc(Cc3cccc(OCc4c[nH]nn4)c3)s2)n1` [Compound 7], on SIRT2 [2], the IC50 (as a rule, the concentration at which inhibition is half-maximal) was determined as 7.8 ± 2.1 µM. The “ADPR adduct detected in solution by CE-ESI-MS” value on SIRT2 [1] is recorded as “confirmed release of 7–ADPR”.
On to `CCCCCCCCCCCCc1cn(CCCC[C@H](NC(=O)[C@H](CCCCN)NC(=O)[C@@H]2CCCN2C(=O)[C@H](CC(C)C)NC(=O)[C@H](C)NC(=O)[C@H](CCC(=O)O)NC(C)=O)C(=O)N[C@H](C(=O)NCC(=O)NCC(N)=O)[C@@H](C)O)nn1` [Compound 6], for which, on SIRT2 [2], the IC50 was < 0.1 µM.
